Results reported in patent US4220755A, “Fortimicin B derivatives and process for production thereof” (Abbott Laboratories, priority 1976, dated 1980).
≈ marks a conversion by molar mass, not a printed value. Like-named read-outs stand apart in the source and are kept apart here.

Legend:
Experiment in all cases: MIC, agar dilution method, pH 8.0
Format in all cases: cell-based
[1] = test system: Klebsiella pneumoniae KY4275 ATCC10031; conditions: ATCC10031; pH 8.0; Klebsiella pneumoniae KY4275; read-out: Minimum inhibition concentration (MIC), KP
Experimental: (§1) Measurement was carried out according to the agar dilution method, using a medium of pH 8.0, or the Japanese Antibiotic Medicament Standard, using a medium of pH 7.2 Units are in mcg/ml.
K.P.: Klebsiella pneumoniae KY4275 ATCC10031.

[2] = test system: Eschericia coli KY4271 ATCC26; conditions: Escherichia coli
Experimental: as §1
E.C.: Eschericia coli KY4271 ATCC26

[3] = test system: Staphylococcus aureus KY4279 ATCC6538P
Experimental: as §1
S.A.: Staphylococcus aureus KY4279 ATCC6538P

[4] = test system: Salmonella typhosa KY4278 ATCC9992; conditions: Salmonella enterica, pH 8, read-out: Minimum inhibition concentration (MIC), ST
Experimental: as §1
S.T.: Salmonella typhosa KY4278 ATCC9992

[5] = test system: Shigella sonnei KY4281 ATCC9290
Experimental: as §1

[6] = test system: Proteus vulgaris KY4277 ATCC6897
Experimental: as §1

Bacillus subtilis KY4273 = test system: Bacillus subtilis KY4273
Experimental: as §1
B.S.: Bacillus subtilis KY4273

[7] = ATCC26, pH 8.0, E. coli KY4271, read-out: Minimum inhibition concentration (MIC), EC
[8] = pH 8.0, Staphylococcus aureus KY4279, read-out: Minimum inhibition concentration (MIC), SA
[9] = ATCC9290, pH 8.0, Shigella sonnei KY4281, read-out: Minimum inhibition concentration (MIC), SS
[10] = ATCC6897, pH 8.0, Proteus vulgaris KY4277, read-out: Minimum inhibition concentration (MIC), PV
[11] = pH 8.0, Bacillus subtilis KY4273, read-out: Minimum inhibition concentration (MIC), BS
[12] = Bacillus subtilis, KY4273, pH 8, read-out: Minimum inhibition concentration (MIC), BS
[13] = ATCC26, pH 8, read-out: Minimum inhibition concentration (MIC), EC
[14] = Proteus vulgaris, ATCC6897, pH 8, read-out: Minimum inhibition concentration (MIC), PV
[15] = Staphylococcus aureus, pH 8, read-out: Minimum inhibition concentration (MIC), SA

| SMILES | MIC [1] [µg/mL] | MIC [2, 7] [µg/mL] | MIC [3, 8] [µg/mL] | MIC [4] [µg/mL] | MIC [5, 9] [µg/mL] | MIC [6, 10] [µg/mL] | MIC (Bacillus subtilis KY4273; [11]) [µg/mL] | MIC (Bacillus subtilis KY4273; [12]) [µg/mL] | MIC [2, 13] [µg/mL] | MIC [6, 14] [µg/mL] | MIC [3, 15] [µg/mL] | MIC ([5]; Shigella sonnei, ATCC9290, pH 8, read-out: Minimum inhibition concentration (MIC), SS) [µg/mL] |
| --- | --- | --- | --- | --- | --- | --- | --- | --- | --- | --- | --- | --- |
| CO[C@H]1[C@@H](O)[C@H](N)[C@@H](O[C@H]2O[C@H]([C@H](C)N)CC[C@H]2N)[C@H](O)[C@@H]1N(C)C(C)=O [Compound 5, 4-N-acetylfortimicin B] | > 200 | 50 (≈ 128 µM) | 12.5 (≈ 32 µM) | 50 (≈ 128 µM) | 50 (≈ 128 µM) | 100 (≈ 256 µM) | 50 (≈ 128 µM) |  |  |  |  |  |
| CCC(=O)N(C)[C@H]1[C@@H](O)[C@H](O[C@H]2O[C@H]([C@H](C)N)CC[C@H]2N)[C@@H](N)[C@H](O)[C@@H]1OC [Compound 6, 4-N-propionylfortimicin B] | > 200 | 50 (≈ 124 µM) | 12.5 (≈ 30.9 µM) | 50 (≈ 124 µM) | > 200 | 200 (≈ 494 µM) | 50 (≈ 124 µM) |  |  |  |  |  |
| CCCC(=O)N(C)[C@H]1[C@@H](O)[C@H](O[C@H]2O[C@H]([C@H](C)N)CC[C@H]2N)[C@@H](N)[C@H](O)[C@@H]1OC [Compound 7, 4-N-(n-butyryl)fortimicin B] | 25 (≈ 59.7 µM) | 6.25 (≈ 14.9 µM) | 6.25 (≈ 14.9 µM) | 12.5 (≈ 29.9 µM) | 50 (≈ 119 µM) | 100 (≈ 239 µM) |  | 12.5 (≈ 29.9 µM) |  |  |  |  |
| CCCCC(=O)N(C)[C@H]1[C@@H](O)[C@H](O[C@H]2O[C@H]([C@H](C)N)CC[C@H]2N)[C@@H](N)[C@H](O)[C@@H]1OC [Compound 8, 4-N-(n-valeryl)fortimicin B] | > 200 | > 100 | 100 (≈ 231 µM) | > 200 | > 200 | > 200 | 25 (≈ 57.8 µM) |  |  |  |  |  |
| CO[C@H]1[C@@H](O)[C@H](N)[C@@H](O[C@H]2O[C@H]([C@H](C)N)CC[C@H]2N)[C@H](O)[C@@H]1N(C)C(=O)CCN [Compound 9, 4-N-(β-alanyl)fortimicin B] | 0.32 (≈ 0.763 µM) | 0.63 (≈ 1.5 µM) | 0.08 (≈ 0.191 µM) | 0.32 (≈ 0.763 µM) | 1.25 (≈ 2.98 µM) | 0.63 (≈ 1.5 µM) | 0.08 (≈ 0.191 µM) |  |  |  |  |  |
| CO[C@H]1[C@@H](O)[C@H](N)[C@@H](O[C@H]2O[C@H]([C@H](C)N)CC[C@H]2N)[C@H](O)[C@@H]1N(C)C(=O)CCCN [Compound 10, 4-N-(γ-amino-n-butyryl)fortimicin B] | 2.5 (≈ 5.77 µM) | 1.25 (≈ 2.88 µM) | 0.32 (≈ 0.738 µM) | 0.63 (≈ 1.45 µM) | 2.5 (≈ 5.77 µM) | 1.25 (≈ 2.88 µM) | 0.16 (≈ 0.369 µM) |  |  |  |  |  |
| CO[C@H]1[C@@H](O)[C@H](N)[C@@H](O[C@H]2O[C@H]([C@H](C)N)CC[C@H]2N)[C@H](O)[C@@H]1N(C)C(=O)CCCCCN [Compound 12, 4-N-(ε-amino-n-caproyl)fortimicin B] | > 20 | > 20 | > 20 | > 20 | > 20 | > 20 | > 20 |  |  |  |  |  |
| CO[C@H]1[C@@H](O)[C@H](N)[C@@H](O[C@H]2O[C@H]([C@H](C)N)CC[C@H]2N)[C@H](O)[C@@H]1N(C)C(=O)CNC(=O)CN [Compound 13, 4-N-glycylglycylfortimicin B] | 2.5 (≈ 5.4 µM) |  | 0.32 (≈ 0.692 µM) | 1.25 (≈ 2.7 µM) | 5 (≈ 10.8 µM) | 2.5 (≈ 5.4 µM) | 0.32 (≈ 0.692 µM) |  | 1.25 (≈ 2.7 µM) |  |  |  |
| CCN(C)[C@H]1[C@@H](O)[C@H](O[C@H]2O[C@H]([C@H](C)N)CC[C@H]2N)[C@@H](N)[C@H](O)[C@@H]1OC [Compound 16, 4-N-ethylfortimicin B] | 50 (≈ 133 µM) |  | 1.56 (≈ 4.14 µM) | 3.13 (≈ 8.31 µM) | 6.25 (≈ 16.6 µM) |  |  | 3.13 (≈ 8.31 µM) | 3.13 (≈ 8.31 µM) | 6.25 (≈ 16.6 µM) |  |  |
| CCCN(C)[C@H]1[C@@H](O)[C@H](O[C@H]2O[C@H]([C@H](C)N)CC[C@H]2N)[C@@H](N)[C@H](O)[C@@H]1OC [Compound 17, 4-N-(n-propyl)fortimicin B] | 100 (≈ 256 µM) |  | 3.13 (≈ 8.01 µM) | 6.25 (≈ 16 µM) | 12.5 (≈ 32 µM) |  |  | 12.5 (≈ 32 µM) | 6.25 (≈ 16 µM) | 12.5 (≈ 32 µM) |  |  |
| CCCCN(C)[C@H]1[C@@H](O)[C@H](O[C@H]2O[C@H]([C@H](C)N)CC[C@H]2N)[C@@H](N)[C@H](O)[C@@H]1OC [Compound 18, 4-N-(n-butyl)fortimicin B] | > 200 | 25 (≈ 61.8 µM) |  | 12.5 (≈ 30.9 µM) | 25 (≈ 61.8 µM) | 100 (≈ 247 µM) | 25 (≈ 61.8 µM) |  |  |  | 12.5 (≈ 30.9 µM) |  |
| CCCCCN(C)[C@H]1[C@@H](O)[C@H](O[C@H]2O[C@H]([C@H](C)N)CC[C@H]2N)[C@@H](N)[C@H](O)[C@@H]1OC [Compound 19, 4-N-(n-pentyl)fortimicin B] | > 200 | 100 (≈ 239 µM) | 25 (≈ 59.7 µM) | 100 (≈ 239 µM) | 100 (≈ 239 µM) | > 200 | 200 (≈ 478 µM) |  |  |  |  |  |
| CO[C@H]1[C@@H](O)[C@H](N)[C@@H](O[C@H]2O[C@H]([C@H](C)N)CC[C@H]2N)[C@H](O)[C@@H]1N(C)CCCN [Compound 20, 4-N-(3-aminopropyl)fortimicin B] | 80 (≈ 197 µM) | 5 (≈ 12.3 µM) |  | 1.25 (≈ 3.08 µM) | 20 (≈ 49.3 µM) | 10 (≈ 24.7 µM) | 2.5 (≈ 6.16 µM) |  |  |  | 1.25 (≈ 3.08 µM) |  |
| CO[C@H]1[C@@H](O)[C@H](N)[C@@H](O[C@H]2O[C@H]([C@H](C)N)CC[C@H]2N)[C@H](O)[C@@H]1N(C)CCCCN [Compound 21, 4-N-(4-aminobutyl)fortimicin B] | 5 (≈ 11.9 µM) |  | 0.32 (≈ 0.763 µM) | 1.25 (≈ 2.98 µM) | 2.5 (≈ 5.96 µM) | 2.5 (≈ 5.96 µM) | 0.32 (≈ 0.763 µM) |  | 1.25 (≈ 2.98 µM) |  |  |  |
| CO[C@H]1[C@@H](O)[C@H](N)[C@@H](O[C@H]2O[C@H]([C@H](C)N)CC[C@H]2N)[C@H](O)[C@@H]1N(C)CCCCCN [Compound 22, 4-N-(5-aminopentyl)fortimicin B] | 20 (≈ 46.1 µM) | 5 (≈ 11.5 µM) | 1.25 (≈ 2.88 µM) | 2.5 (≈ 5.77 µM) | 5 (≈ 11.5 µM) | 10 (≈ 23.1 µM) | 0.63 (≈ 1.45 µM) |  |  |  |  |  |
| CO[C@H]1[C@@H](O)[C@H](N)[C@@H](O[C@H]2O[C@H]([C@H](C)N)CC[C@H]2N)[C@H](O)[C@@H]1N(C)CCCCCCN [Compound 23, 4-N-(6-aminohexyl)fortimicin B] | > 80 | 20 (≈ 44.7 µM) | 5 (≈ 11.2 µM) | 20 (≈ 44.7 µM) | > 80 | > 80 | 5 (≈ 11.2 µM) |  |  |  |  |  |
| CO[C@H]1[C@@H](O)[C@H](N)[C@@H](O[C@H]2O[C@H]([C@H](C)N)CC[C@H]2N)[C@H](O)[C@@H]1N(C)CCO [Compound 24, 4-N-(2-hydroxyethyl)fortimicin B] | 40 (≈ 102 µM) | 5 (≈ 12.7 µM) |  | 1.25 (≈ 3.18 µM) | 10 (≈ 25.5 µM) | 10 (≈ 25.5 µM) | > 80 |  |  |  | 1.25 (≈ 3.18 µM) |  |
| CO[C@H]1[C@@H](O)[C@H](N)[C@@H](O[C@H]2O[C@H]([C@H](C)N)CC[C@H]2N)[C@H](O)[C@@H]1N(C)C[C@@H](O)CCCN [Compound 33, 4-N-[(S)-5-amino-2-hydroxypentyl]fortimicin B] |  | 2.5 (≈ 5.56 µM) | 0.32 (≈ 0.712 µM) | 10 (≈ 22.2 µM) |  | 5 (≈ 11.1 µM) |  | 1.25 (≈ 2.78 µM) |  |  |  | 1.25 (≈ 2.78 µM) |
